Experimental data from patent publication US11739098B2 (BRISTOL-MYERS SQUIBB COMPANY, priority 2017, dated 2023).
pIC50: −log10 of the molar value.

Columns and labels:
Assay type in all cases: cell-based
human TLR9 = molecular target: T1, human TLR9 (Homo sapiens, UniProt Q9NR96); assay: TLR9 inhibition reporter assay (HEK-Blue cells, SEAP reporter, ODN2006 stimulation); settings: HEK-Blue cells overexpressing human TLR9, SEAP reporter, ODN2006 5 nM
T1 construct: host or cells: HEK-Blue cells (HEK293-derived reporter line)
T1 sequence (Q9NR96 26-1032): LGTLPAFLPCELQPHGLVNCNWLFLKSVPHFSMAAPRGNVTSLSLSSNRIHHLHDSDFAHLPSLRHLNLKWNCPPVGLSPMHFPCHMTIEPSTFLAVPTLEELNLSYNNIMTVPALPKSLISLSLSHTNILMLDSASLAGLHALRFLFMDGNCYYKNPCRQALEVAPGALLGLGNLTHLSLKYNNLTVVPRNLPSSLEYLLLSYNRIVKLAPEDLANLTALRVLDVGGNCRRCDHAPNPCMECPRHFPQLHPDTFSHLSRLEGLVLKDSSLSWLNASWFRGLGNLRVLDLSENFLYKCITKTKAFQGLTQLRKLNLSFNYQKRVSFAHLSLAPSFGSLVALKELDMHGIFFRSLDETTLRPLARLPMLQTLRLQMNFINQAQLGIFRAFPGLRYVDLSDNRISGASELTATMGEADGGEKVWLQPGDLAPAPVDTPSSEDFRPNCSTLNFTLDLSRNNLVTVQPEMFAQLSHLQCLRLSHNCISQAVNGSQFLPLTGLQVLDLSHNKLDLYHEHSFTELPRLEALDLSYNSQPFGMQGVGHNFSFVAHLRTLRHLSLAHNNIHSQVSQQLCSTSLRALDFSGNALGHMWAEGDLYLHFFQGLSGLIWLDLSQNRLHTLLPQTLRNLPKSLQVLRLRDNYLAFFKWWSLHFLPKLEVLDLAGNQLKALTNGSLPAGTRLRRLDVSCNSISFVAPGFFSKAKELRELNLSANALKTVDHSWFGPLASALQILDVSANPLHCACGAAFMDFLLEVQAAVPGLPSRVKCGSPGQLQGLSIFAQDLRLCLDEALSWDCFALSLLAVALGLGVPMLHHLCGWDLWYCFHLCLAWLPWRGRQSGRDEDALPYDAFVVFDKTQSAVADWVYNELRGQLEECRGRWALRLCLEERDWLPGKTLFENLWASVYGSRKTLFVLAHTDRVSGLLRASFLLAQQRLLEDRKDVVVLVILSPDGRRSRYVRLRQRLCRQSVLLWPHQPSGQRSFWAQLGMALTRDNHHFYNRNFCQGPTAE
Method in brief: (§1)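 Agonists (final): TLR7 gardiquimod 7.5 μM; TLR8 R848 15.9 μM; TLR9 ODN2006 5 nM. HEK-Blue reporter cells, 30 min RT compound pre-incubation, 0.05 nM–50 μM dose range, 22 h at 37 °C, colorimetric SEAP detection medium. % inhibition relative to agonist+DMSO and known-inhibitor wells.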

human TLR8 = molecular target: T2, human TLR8 (Homo sapiens, UniProt Q9NR97); assay: TLR8 inhibition reporter assay (HEK-Blue cells, SEAP reporter, R848 stimulation); settings: HEK-Blue cells overexpressing human TLR8, SEAP reporter, R848 15.9 μM
T2 construct: host or cells: HEK-Blue cells (HEK293-derived reporter line)
T2 sequence (Q9NR97 27-1041): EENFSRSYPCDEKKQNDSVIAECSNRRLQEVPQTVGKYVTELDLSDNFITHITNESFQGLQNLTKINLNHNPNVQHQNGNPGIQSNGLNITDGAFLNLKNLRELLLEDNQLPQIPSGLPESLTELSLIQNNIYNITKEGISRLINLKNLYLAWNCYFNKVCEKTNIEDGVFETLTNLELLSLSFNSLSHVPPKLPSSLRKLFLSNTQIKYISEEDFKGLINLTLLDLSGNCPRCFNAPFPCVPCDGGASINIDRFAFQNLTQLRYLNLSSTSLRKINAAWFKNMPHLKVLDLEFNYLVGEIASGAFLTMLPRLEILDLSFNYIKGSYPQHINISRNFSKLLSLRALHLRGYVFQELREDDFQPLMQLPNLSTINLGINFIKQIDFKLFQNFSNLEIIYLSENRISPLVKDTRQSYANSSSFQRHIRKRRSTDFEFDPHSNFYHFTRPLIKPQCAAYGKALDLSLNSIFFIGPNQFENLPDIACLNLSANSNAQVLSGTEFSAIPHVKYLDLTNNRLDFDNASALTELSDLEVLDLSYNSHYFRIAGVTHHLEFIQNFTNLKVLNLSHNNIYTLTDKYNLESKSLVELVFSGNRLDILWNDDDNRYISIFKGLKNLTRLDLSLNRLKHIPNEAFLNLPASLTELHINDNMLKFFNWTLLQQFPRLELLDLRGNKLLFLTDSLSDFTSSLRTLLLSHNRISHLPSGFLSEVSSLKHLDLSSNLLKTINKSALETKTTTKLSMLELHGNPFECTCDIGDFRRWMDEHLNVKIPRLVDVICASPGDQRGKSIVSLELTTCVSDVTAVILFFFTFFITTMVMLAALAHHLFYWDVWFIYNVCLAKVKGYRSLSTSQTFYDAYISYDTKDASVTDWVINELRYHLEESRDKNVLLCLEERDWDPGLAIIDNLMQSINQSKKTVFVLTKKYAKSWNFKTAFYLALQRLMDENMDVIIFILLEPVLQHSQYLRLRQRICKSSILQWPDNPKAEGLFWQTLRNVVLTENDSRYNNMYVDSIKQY
Method in brief: as §1

human TLR7 = molecular target: T3, human TLR7 (Homo sapiens, UniProt Q9NYK1); assay: TLR7 inhibition reporter assay (HEK-Blue cells, SEAP reporter, gardiquimod stimulation); settings: HEK-Blue cells overexpressing human TLR7, SEAP reporter, gardiquimod 7.5 μM
T3 construct: host or cells: HEK-Blue cells (HEK293-derived reporter line)
T3 sequence (Q9NYK1 27-1049): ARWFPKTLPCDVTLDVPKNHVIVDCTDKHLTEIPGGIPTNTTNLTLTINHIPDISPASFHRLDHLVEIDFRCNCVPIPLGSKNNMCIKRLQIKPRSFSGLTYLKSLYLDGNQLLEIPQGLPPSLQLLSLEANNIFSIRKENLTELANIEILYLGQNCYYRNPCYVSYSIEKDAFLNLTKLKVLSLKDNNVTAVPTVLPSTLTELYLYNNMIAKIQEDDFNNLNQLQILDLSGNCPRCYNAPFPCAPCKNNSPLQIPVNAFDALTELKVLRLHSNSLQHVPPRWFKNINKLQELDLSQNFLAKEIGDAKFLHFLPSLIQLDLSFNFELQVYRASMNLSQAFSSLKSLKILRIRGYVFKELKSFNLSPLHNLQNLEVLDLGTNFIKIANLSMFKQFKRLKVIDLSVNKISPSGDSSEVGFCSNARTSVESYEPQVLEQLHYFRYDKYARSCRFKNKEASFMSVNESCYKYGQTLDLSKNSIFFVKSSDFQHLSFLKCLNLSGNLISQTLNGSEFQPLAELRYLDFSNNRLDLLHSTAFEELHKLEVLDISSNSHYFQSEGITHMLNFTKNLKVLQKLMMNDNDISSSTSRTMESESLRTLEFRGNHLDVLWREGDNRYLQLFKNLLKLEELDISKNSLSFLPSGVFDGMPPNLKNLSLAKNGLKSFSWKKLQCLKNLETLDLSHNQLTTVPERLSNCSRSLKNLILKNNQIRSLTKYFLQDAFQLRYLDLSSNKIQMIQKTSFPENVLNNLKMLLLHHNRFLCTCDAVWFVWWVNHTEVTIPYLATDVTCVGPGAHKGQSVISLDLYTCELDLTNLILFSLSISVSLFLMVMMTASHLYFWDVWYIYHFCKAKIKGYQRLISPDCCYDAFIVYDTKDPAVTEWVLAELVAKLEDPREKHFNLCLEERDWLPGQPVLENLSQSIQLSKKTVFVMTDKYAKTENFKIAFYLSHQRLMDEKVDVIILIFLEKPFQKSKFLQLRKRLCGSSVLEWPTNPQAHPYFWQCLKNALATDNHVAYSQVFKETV
Method in brief: as §1

| pIC50 (human TLR9) | pIC50 (human TLR8) | pIC50 (human TLR7) | SMILES |
| --- | --- | --- | --- |
| 4.30 to 6.00 | > 7.00 | > 7.00 | CNC(=O)CN1CCC(c2ccc3[nH]c(-c4cc(OC)n5nc(C)nc5c4)c(C(C)C)c3c2)CC1 [Example 347, 2-(4-(3-isopropyl-2-(5-methoxy-2-methyl-[1,2,4]triazolo[1,5-a]pyridin-7-yl)-1H-indol-5-yl)piperidin-1-yl)-N-methylacetamide] |
| 4.30 to 6.00 | 6.00 to 7.00 | > 7.00 | COc1cc(-c2[nH]c3ccc(C4CCN(CC(=O)N(C)C)CC4)cc3c2C(C)C)c2ccccc2n1 [Example 340, 2-(4-(3-isopropyl-2-(2-5 methoxyquinolin-4-yl)-1H-indol-5-yl)piperidin-1-yl)-N,N-dimethylacetamide] |
| 6.00 to 7.00 | > 7.00 | > 7.00 | Cc1cc2cc(-c3[nH]c4ccc(C5CCN(C(=O)CN(C)C)CC5)cc4c3C(C)C)cc(C)n2n1 [Example 552, 2-(dimethylamino)-1-(4-(2-(2,7-dimethylpyrazolo[1,5-a]pyridin-5-yl)-3-isopropyl-1H-indol-5-yl)piperidin-1-yl)ethan-1-one] |
| 4.30 to 6.00 | > 7.00 | > 7.00 | Cc1c(-c2[nH]c3ccc(C4CCN(C5CCOCC5)CC4)cc3c2C(C)C)c2cccnc2n1C [Example 691, 3-(3-isopropyl-5-(1-(tetrahydro-2H-pyran-4-yl)piperidin-4-yl)-1H-indol-2-yl)-1,2-dimethyl-1H-pyrrolo[2,3-b]pyridine] |
| > 7.00 | > 7.00 | > 7.00 | Cc1c(-c2ccnc3[nH]ccc23)[nH]c2ccc(C3CCN(C4CCN(CC(C)C)CC4)CC3)cc12 [Example 812, 4-(5-(1′-isobutyl-[1,4′-bipiperidin]-4-yl)-3-methyl-1H-indol-2-yl)-1H-pyrrolo[2,3-b]pyridine] |
| 6.00 to 7.00 | > 7.00 | > 7.00 | CCc1c(-c2c(C)cnc3[nH]ccc23)[nH]c2ccc(C3CCNCC3)cc12 [Example 246, 4-(3-ethyl-5-(piperidin-4-yl)-1H-indol-2-yl)-5-methyl-1H-pyrrolo[2,3-b]pyridine] |
| 4.30 to 6.00 | > 7.00 | 6.00 to 7.00 | Cc1c(-c2[nH]c3ccc(C4CCNCC4)cc3c2C(C)C)ccc2nnnn12 [Example 72, 6-(3-isopropyl-5-(piperidin-4-yl)-1H-indol-2-yl)-5-methyltetrazolo[1,5-a]pyridine] |
| 4.30 to 6.00 | > 7.00 | > 7.00 | CC(C)c1c(-c2ccnc3[nH]ncc23)[nH]c2ccc(C3CCN(C(=O)CCn4ccnc4)CC3)cc12 [Example 642, 3-(1H-imidazol-1-yl)-1-(4-(3-isopropyl-2-(1H-pyrazolo[3,4-b]pyridin-4-yl)-1H-indol-5-yl)piperidin-1-yl)propan-1-one] |
| 6.00 to 7.00 | 6.00 to 7.00 | 6.00 to 7.00 | CCc1c(-c2ccnc3[nH]ncc23)[nH]c2ccc(C3CCN(Cc4[nH]cnc4C)CC3)cc12 [Example 916, 4-(3-ethyl-5-(1-((4-methyl-1H-imidazol-5-yl)methyl)piperidin-4-yl)-1H-indol-2-yl)-1H-pyrazolo[3,4-b]pyridine] |
| 4.30 to 6.00 | > 7.00 | > 7.00 | Cc1cc(-c2[nH]c3ccc(C4CCNCC4)cc3c2C(C)C)cc2ccnn12 [Example 143, 5-(3-isopropyl-5-(piperidin-4-yl)-1H-indol-2-yl)-7-methylpyrazolo[1,5-a]pyridine] |
| 6.00 to 7.00 | > 7.00 | > 7.00 | CNC(=O)c1cn2cc(-c3[nH]c4ccc(C5CCN(C(=O)CN(C)C)CC5)cc4c3C(C)C)cc(C)c2n1 [Example 495, 6-(5-(1-(dimethylglycyl)piperidin-4-yl)-3-isopropyl-1H-indol-2-yl)-N,8-dimethylimidazo[1,2-a] pyridine-2-carboxamide] |
| 6.00 to 7.00 | > 7.00 | > 7.00 | CNCCN1CCC(c2ccc3[nH]c(-c4ccnc5[nH]ncc45)c(C(C)C)c3c2)C(F)(F)C1 (stereo not drawn) [Example 674, 2-(3,3-difluoro-4-(3-isopropyl-2-(1H-pyrazolo[3,4-b]pyridin-4-yl)-1H-indol-5-yl)piperidin-1-yl)-N-methylethan-1-amine] |
| 6.00 to 7.00 | > 7.00 | > 7.00 | CC(C)c1c(-c2ccnc3[nH]ncc23)[nH]c2ccc(C3CCN(C(=O)CN4CC[C@@H](N(C)C)C4)CC3)cc12 [Example 582, (R)-2-(3-(dimethylamino)pyrrolidin-1-yl)-1-(4-(3-isopropyl-2-(1H-pyrazolo[3,4-b]pyridin-4-yl)-1H-indol-5-yl)piperidin-1-yl)ethan-1-one] |
| 6.00 to 7.00 | > 7.00 | > 7.00 | CCN(CC)CCN1CCC(c2ccc3[nH]c(-c4ccnc5[nH]ncc45)c(C(C)C)c3c2)CC1 [Example 661, N,N-diethyl-2-(4-(3-isopropyl-2-(1H-pyrazolo[3,4-b]pyridin-4-yl)-1H-indol-5-yl)piperidin-1-yl)ethan-1-amine] |
